Consider six molecules from patent publication US9771357B2, “ALXR agonist compound” (ONO PHARMACEUTICAL CO., LTD., priority 2013, dated 2017).

For the assay, the target named is T1, ALXR (Homo sapiens, UniProt P25090).
T1 construct: expressed in transfected cells; host or cells: CHO-K1
T1 sequence (P25090 1-351): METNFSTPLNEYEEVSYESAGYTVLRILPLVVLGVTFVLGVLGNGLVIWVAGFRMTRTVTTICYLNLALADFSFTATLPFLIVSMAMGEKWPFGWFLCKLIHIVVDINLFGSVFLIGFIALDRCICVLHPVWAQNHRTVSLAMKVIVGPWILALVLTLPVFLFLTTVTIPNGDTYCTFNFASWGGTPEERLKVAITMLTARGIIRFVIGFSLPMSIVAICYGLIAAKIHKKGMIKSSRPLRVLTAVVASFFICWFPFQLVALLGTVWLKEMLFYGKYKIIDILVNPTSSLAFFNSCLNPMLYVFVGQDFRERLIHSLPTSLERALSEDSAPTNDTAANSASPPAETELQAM
The assay can be described thus: IP1 (Inositol Monophosphate) Assay. The format is cell-based. As to conditions: ALXR/Gα16 expression CHO-K1 cell strain; for IP1 Concentration: compound at 3 μM, 30 minutes, medium group 293.6. As to the method:
IP1 (Inositol Monophosphate) Assay
An ALXR/Gα16 expression CHO-K1 cell strain having 3×10^4 cells/100 μL was seeded on a 96-well plate using an F-12 culture medium (10% FBS, 100 μmol/L nonessential amino acid, 100 U/mL penicillin, 100 μg/mL streptomycin, 0.25 μg/mL Amphotericin B, 400 μg/mL Geneticin, and 5 μg/mL Puromycin), and cultured at 37° C. in 5% CO2 overnight. After the culture supernatant was removed, a 70-μL Basal buffer (10 mmol/L HEPES, 1 mmol/L CaCl2, 0.5 mmol/L MgCl2, 4.2 mmol/L KCl, 146 mmol/L NaCl, 5.5 mmol/L glucose, 50 mmol/L LiCl), each buffer containing one of the compounds and the reference example compound, was added. Here, as the medium group, a Basal buffer containing 1% DMSO was used. After the cell strain was further cultured at 37° C. in 5% CO2 for 30 minutes, IP1-d2 conjugate (Cisbio) and Anti-IP1 cryptate Tb conjugate (Cisbio) diluted with Lysis buffer (Cisbio) were each added in an amount of 15 μL. The culture was allowed to stand for 1 hour under shaded conditions at room temperature. Subsequently, using EnVision (PerkinElmer), measurement was performed at an excitation wavelength of 320 nm and fluorescence wavelengths of 620 nm and 665 nm, and the fluorescence ratio 665 nm/620 nm was calculated. With respect to the IP1 concentration, a calibration curve was produced using an IP1 calibrator (Cisbio) to be converted into concentration. The measured values were analyzed using XLfit (IDBS).

Turning to `Cc1sc(C2(O)CCN(C(=O)Nc3ccc(C(F)(F)F)cc3)CC2)nc1-c1cccc(F)c1` [27(1), 4-[4-(3-Fluorophenyl)-5-methyl-1,3-thiazol-2-yl]-4-hydroxy-N-[4-(trifluoromethyl)phenyl]-1-piperidinecarboxamide], the “IP1 Concentration” value amounted to 539.3 nmol/L.
The same measure, in the same setting: with `Cc1sc(C2CCN(C(=O)Nc3ccc(C(F)(F)F)cc3)CC2)nc1-c1cccc(F)c1` [29(2)] the figure was 853.7 nmol/L; with `O=C(Nc1ccc(C(F)(F)F)cc1)N1CCC(c2nc(-c3cccnc3)cs2)CC1` [Example 40, 4-[4-(3-Pyridyl)-1,3-thiazol-2-yl]-N-[4-(trifluoromethyl)phenyl]-1-piperidinecarboxamide], 789.9 nmol/L; with `Cc1sc(C2(NS(C)(=O)=O)CCN(C(=O)Nc3ccc(C(F)(F)F)cc3)CC2)nc1-c1ccccc1` [Example 51, 4-(5-Methyl-4-phenyl-1,3-thiazol-2-yl)-4-[(methylsulfonyl)amino]-N-[4-(trifluoromethyl)phenyl]-1-piperidinecarboxamide], 592.1 nmol/L.
On the same count and under the same terms, with `N#Cc1sc(C2CCN(C(=O)Nc3ccc(C(F)(F)F)cc3)CC2)nc1-c1ccccc1` [Example 60, 4-(5-Cyano-4-phenyl-1,3-thiazol-2-yl)-N-[4-(trifluoromethyl)phenyl]-1-piperidinecarboxamide] the figure was 1020.9 nmol/L.
For `O=C(Nc1cccnc1)N1CCC(c2nc(-c3ccccc3)cs2)CC1` [Reference Example Compound, 4-(4-Phenyl-1,3-thiazol-2-yl)-N-(3-pyridyl)-1-piperidinecarboxamide, reference compound], the “IP1 Concentration” value is recorded as 282.5 nmol/L. The “enhancement of IP1 concentration as compared with the medium group” value (3 μM) is recorded as “no enhancement was seen”.
